Results as given in patent US11672785B2, “Tetrahydro-1H-pyrido [3,4-b]indole anti-estrogenic drugs” (Olema Pharmaceuticals, Inc., priority 2015, dated 2023).
Entries after “also recorded” stand apart in the source; their conditions may differ. Like-named read-outs stand apart in the source and are kept apart here.

Columns and labels:
[1] = Free fraction of drug in mouse plasma, rapid equilibrium dialysis; assay type: in vitro ADME
Source text: (§1) Method for detecting free fraction of drug in plasma: Compounds were screened for binding to human and mouse plasma (Bioreclamation, IVT) using a rapid equilibrium dialysis device (Thermo Fisher Scientific) and compounds subsequently detected by LC-MS/MS. Percent free drug equals the concentration of compound in buffer chamber divided by that in the […] chamber×100.

[2] = Pharmacokinetics in BALB/c female mice, oral gavage; assay type: in vivo; settings: for oral drug exposure, free fraction taken into account, vs equal dose of Compounds 107 and 102: mice, oral gavage, FIGS. 1A-1B
Method: Pharmacokinetics were studied in BALB/c female mice. For each arm, three BALB/c female mice were given 5 mg/kg of compound in 0.5% CMC formulation by oral gavage. Concentration of compounds in mouse plasma and their metabolites were analyzed at each time point using LC-MS/MS. The concentrations were adjusted for the free fraction of drug in mouse plasma (method below). Area under the curve was calculated using the trapezoidal rule for 0-24 hours.

[3] = Free fraction of drug in human plasma, rapid equilibrium dialysis; assay type: in vitro ADME
Source text: as §1

[4] = molecular target: T1, ERα (Homo sapiens (Human), UniProt P03372); assay: ERα levels in MCF-7 cells, in-cell western (Colorimetric In-Cell ELISA); assay type: cell-based; settings: for Relative change in ERα levels in breast cells % Veh: MCF-7, 24 hours
Method: IC50's were calculated using the least squares fit method. Error bars represent S.E.M from triplicate wells.

[5] = test system: MCF-7 (HER2/neu) tumors; assay: Xenograft study, Clone 18 (MCF7/Her2/neu) tumors in athymic ovariectomized nu/nu mice; assay type: in vivo; settings: oral gavage, 10 mg/kg, FIGS. 5A-B
Method: Xenograft studies were conducted by the Preclinical Therapeutics Core at the University of California, San Francisco in accordance with the Institutional Animal Care and Use Committee (IACUC) guidelines. Clone 18 cells (MCF7/Her2/neu) cells were grown in culture and implanted into athymic ovariectomized nu/nu mice. To stimulate tumor growth 0.36 mg estradiol 90 day release pellets (Innovative Research, Saratoga, Fla.) were implanted along with cells. When tumors reached 150-250 cubic millimeters the pellets were exchanged for 0.18 mg estradiol 90 day release pellets and divided into groups of six mice per treatment group. One of those groups received vehicle only (0.5% CMC+8% DMSO), and Compound B and Compound C each had 2 groups treated with either 10 or 100 mg/kg compound. Compounds were administered by oral gavage twice daily, except once daily on weekends/holidays for the first 21 days, and once daily after day 21. Tumors and bodyweight were measured twice weekly.

[6] = test system: MCF-7 breast cancer cells; assay: Inhibition of E2-stimulated proliferation of MCF-7 cells (Cyquant); assay type: cell-based; settings: Homo sapiens, MCF7
Method: Proliferation of MCF-7 breast cancer cells was measured using Cyquant, a fluorescent DNA-binding dye (Thermo Fisher Scientific). MCF-7 cells were treated with antiestrogens in triplicate in hormone-depleted medium for 5-7 days in the presence of 100 pM E2. Fluorescent activity was normalized to the activity of E2 alone and IC50's were calculated using the least squares fit method.

[7] = test system: estrogen-responsive reporter gene, ERE-tk109-Luc; assay: Inhibition of E2-induced transcription, ERE-tk109-Luc reporter in transfected MCF-7 cells; assay type: cell-based; settings: Homo sapiens, MCF7
Method: Representative compounds were tested for their inhibitory activity of estrogen according to the assay methods described in Hodges-Gallagher, L., Valentine, C. […] Specifically, MCF-7 cells were transiently transfected with an estrogen-responsive reporter gene, ERE-tk109-Luc. […] Luciferase activity was normalized to activity of E2 alone and IC50's were calculated using the least squares fit method.

[8] = test system: AP activity in ECC-1 cells; assay: Alkaline phosphatase (AP) assay in ECC-1 uterine cells, antagonist mode (co-treated with 500 pM E2); assay type: cell-based, human; settings: 100 nM antiestrogen
Method: Method for performing the alkaline phosphatase (AP) assay. ECC-1 cells were trypsinized and resuspended in hormone-depleted media and plated at a density of 15 k cells per well into a 96-well plate for at least 4 hours. Cells were treated with antiestrogens for 3 days and plates were subsequently frozen at −80° C. […] AP activity was normalized to the activity of E2 alone.

[9] = molecular target: T1, ERα; assay: ER degradation in MCF-7 cells, immunoblot; assay type: cell-based; settings: 100 nM, 24 hours, serum-free medium
Method: MCF-7 cells were treated with 100 nM anti-estrogen for 24 hours in serum-free medium and protein extracts immunoblotted with D12 antibody to ERα and β-actin (Santa Cruz Biotechnology). The numbers below the blots represent the optical density of ERα bands of each treatment relative to percent vehicle after normalization to β-actin.

[10] = test system: AP activity in ECC-1 cells; assay: Alkaline phosphatase (AP) assay in ECC-1 uterine cells, agonist mode; assay type: cell-based, human; settings: mean of n
Method: Method for performing the alkaline phosphatase (AP) assay. ECC-1 cells were trypsinized and resuspended in hormone-depleted media and plated at a density of 15 k cells per well into a 96-well plate for at least 4 hours. Cells were treated with antiestrogens for 3 days and plates were subsequently frozen at −80° C. Thawed plates were incubated with a chromogenic substrate of AP, p-nitrophenyl phosphate (Thermo Fisher Scientific), for 40 minutes at 40° C. and absorbances were read at 405 nm. AP activity was normalized to the activity of E2 alone. […] A representative result for induction of AP activity in uterine cells (% E2) is shown below in tabular form: […]

[11] = MCF-7, 100 pM E2, 5-7 days, read-out: inhibition of E2-stimulated proliferation in breast cells IC50
[12] = Table 1, read-out: MCF-7 Proliferation IC50
[13] = mean of n, read-out: Inhibition of E2-stimulated proliferation in breast cells pIC50 (converted)
[14] = MCF-7, 100 pM E2, 22 hours, read-out: inhibition of E2-induced transcription in breast cells IC50
[15] = Table 1, read-out: ERE-Luc IC50
[16] = mean of n, read-out: Inhibition of E2-stimulated transcription in breast cells pIC50 (converted)
[17] = BALB/c mice, 5 mg/kg oral gavage

T1 sequence (P03372 whole entry): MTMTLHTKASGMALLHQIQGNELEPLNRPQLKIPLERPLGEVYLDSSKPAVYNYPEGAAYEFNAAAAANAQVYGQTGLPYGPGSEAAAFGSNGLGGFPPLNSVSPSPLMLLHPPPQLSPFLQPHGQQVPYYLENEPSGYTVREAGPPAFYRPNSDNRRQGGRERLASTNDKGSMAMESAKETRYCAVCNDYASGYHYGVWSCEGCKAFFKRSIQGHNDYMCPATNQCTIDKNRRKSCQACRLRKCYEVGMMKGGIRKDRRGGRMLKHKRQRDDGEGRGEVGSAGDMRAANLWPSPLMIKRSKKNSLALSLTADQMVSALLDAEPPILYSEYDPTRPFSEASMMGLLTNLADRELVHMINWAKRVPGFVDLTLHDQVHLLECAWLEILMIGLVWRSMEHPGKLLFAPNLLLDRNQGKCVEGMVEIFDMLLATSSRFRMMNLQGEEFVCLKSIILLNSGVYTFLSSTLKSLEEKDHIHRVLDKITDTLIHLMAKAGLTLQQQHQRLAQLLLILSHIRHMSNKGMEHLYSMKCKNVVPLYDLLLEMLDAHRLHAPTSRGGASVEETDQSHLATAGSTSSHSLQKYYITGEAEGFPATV

| SMILES | fraction unbound [1] | oral drug exposure, free fraction taken into account, vs equal dose of Compounds 107 and 102 [2] | fraction unbound [3] | Relative change in ERα levels in breast cells % Veh [4] [% Veh] | tumor shrinkage in xenografted mice [5] | IC50 [6, 11] [nM] | IC50 [6, 12] [nM] | IC50 [6, 13] [nM] | IC50 [7, 14] [nM] | IC50 [7, 15] [nM] | IC50 [7, 16] [nM] | residual AP activity in uterine cells (% of E2 alone) [8] [% E2] | 24 hour drug exposure compared to other compounds [2, 17] | half-life [2, 17] | oral bioavailability [2, 17] | ER degradation in MCF-7 cells (in-cell western, FIG. 2) ([4]; 24 hours) | ER degradation in MCF-7 cells (immunoblot, FIG. 7) [9] | Induction of Alkaline Phosphatase (AP) % E2 [10] [% E2] |
| --- | --- | --- | --- | --- | --- | --- | --- | --- | --- | --- | --- | --- | --- | --- | --- | --- | --- | --- |
| C[C@@H]1Cc2c([nH]c3ccccc23)[C@@H](c2ccc(OCCN3CC(CF)C3)cc2)N1CC(C)(C)F [Compound C, (1R,3R)-2-(2-fluoro-2-methylpropyl)-1-(4-(2-(3-(fluoromethyl)azetidin-1-yl)ethoxy)phenyl)-3-methyl-2,3,4,9-tetrahydro-1H-pyrido[3,4-b]indole] | 0.00092 | substantially higher | 0.00151 | 42 | outstandingly potent in shrinking human breast cancer xenografts | 1.3 | 14.5 | 11.7 | 10.7 | 10.7 | 8.13 | – | – | – | – | – | – | – |
| C[C@]12CC[C@@H]3c4ccc(O)cc4C[C@@H](CCCCCCCCC[S+]([O-])CCCC(F)(F)C(F)(F)F)[C@H]3[C@@H]1CC[C@@H]2O (stereo partly drawn) [Fulvestrant, reference compound] | – | – | 1e-05 | – | – | 2.1 | – | 2.63 | 1.4 | – | 1.91 | – | – | – | – | – | – | – |
| C[C@@H]1Cc2c([nH]c3ccccc23)[C@@H](c2c(F)cc(OCCN3CC(CF)C3)cc2F)N1CC(C)(C)F [Compound D, (1R,3R)-1-(2,6-difluoro-4-(2-(3-(fluoromethyl)azetidin-1-yl)ethoxy)phenyl)-2-(2-fluoro-2-methylpropyl)-3-methyl-2,3,4,9-tetrahydro-1H-pyrido[3,4-b]indole] | 0.00036 | – | 0.00044 | – | – | 8.4 | 8.4 | 10.5 | 10 | 10 | 9.55 | 4.07 | – | – | – | – | – | – |
| CCCN1CC(Oc2ccc([C@@H]3c4[nH]c5ccccc5c4C[C@@H](C)N3CC(C)(C)F)cc2F)C1 [Compound A, (1R,3R)-2-(2-fluoro-2-methylpropyl)-1-(3-fluoro-4-((1-propylazetidin-3-yl)oxy)phenyl)-3-methyl-2,3,4,9-tetrahydro-1H-pyrido[3,4-b]indole] | – | – | – | – | – | 7.58 | 7.58 | – | 2.96 | 2.96 | – | – | – | – | – | – | – | – |
| CCCN1CC(Oc2ccc([C@@H]3c4[nH]c5ccccc5c4C[C@@H](C)N3CC(C)(C)F)cc2)C1 [Compound B, (1R,3R)-2-(2-fluoro-2-methylpropyl)-3-methyl-1-(4-((1-propylazetidin-3-yl)oxy)phenyl)-2,3,4,9-tetrahydro-1H-pyrido[3,4-b]indole] | 0.00027 | substantially higher | 0.00036 | 45 | outstandingly potent in shrinking human breast cancer xenografts; also recorded: shrinks MCF-7 (HER2/neu) tumors | 4.53 | 4.53 | 7.76 | 4.35 | 4.35 | 4.37 | – | better | high | high | degrades the estrogen receptor | degrades the estrogen receptor | – |
| CCCN1CC(Oc2cc(F)c([C@@H]3c4[nH]c5ccccc5c4C[C@@H](C)N3CC(C)(C)F)c(F)c2)C1 [Goodacre Compound 107, (1R,3R)-1-(2,6-difluoro-4-((1-propylazetidin-3-yl)oxy)phenyl)-2-(2-fluoro-2-methylpropyl)-3-methyl-2,3,4,9-tetrahydro-1H-pyrido[3,4-b]indole, reference compound] | 0.00012 | – | 0.00013 | – | – | – | – | 7.59 | – | – | 4.37 | – | – | – | – | – | – | 0.00 |
| Oc1ccc2c(c1)CC[C@H](c1ccccc1)[C@@H]2c1ccc(OCCN2CCCC2)cc1 [Lasofoxifene, reference compound] | – | – | – | – | – | 11 | – | – | 4.6 | – | – | – | – | – | – | – | – | – |
| C[C@@H]1Cc2c([nH]c3ccccc23)[C@@H](c2c(F)cc(/C=C/C(=O)O)cc2F)N1CC(C)(C)F [AZD9496, (E)-3-(3,5-Difluoro-4-((1R,3R)-2-(2-fluoro-2-methylpropyl)-3-methyl-2,3,4,9-tetrahydro-1H-pyrido[3,4-b]indol-1-yl)phenyl)acrylic Acid, reference compound] | 0.00214 | – | 0.00308 | – | – | – | – | – | 0.2 | 0.2 | 0.631 | – | – | – | – | – | – | – |
